The source of these data is patent US8466139B2, “Formulation” (AstraZeneca AB, priority 2000, dated 2013).

SMILES strings stand for the structures.

Series [1] is described as follows: Dissipation of 14C labelled benzyl alcohol from the injection site. It is filed as in vivo. From the text: This finding is indeed surprising for the following reasons. • 1. […] It is believed that the tissue irritation/inflammation was due to the presence of fulvestrant in the form of solid particles. The release profile appeared to be determined by the extent of inflammation/irritation present at the injection site and this was variable and difficult to control.

The nature of series [2]: Solubility of fulvestrant in different solvents. The format is physicochemical. The note with it: Water, 25° C.
Series [3] relates to human breast cancer cells. Particulars: block of oestradiol-stimulated growth, human breast cancer cells in vitro; cited from earlier work.
The next series relates to uterus. Particulars: intact adult rats, cited from earlier work.

With `OCc1ccccc1` [^14C labelled benzyl alcohol, benzyl alcohol], the “time to removal from the body after administration” value in series [1] was not above 24 h.
Consider `C[C@]12CC[C@@H]3c4ccc(O)cc4C[C@@H](CCCCCCCCC[S+]([O-])CCCC(F)(F)C(F)(F)F)[C@H]3[C@@H]1CC[C@@H]2O` (stereo partly drawn) [fulvestrant, 7α-[9-(4,4,5,5,5-Pentafluoropentylsulphinyl)nonyl]oestra-1,3-5(10)-triene-3,17β-diol], for which the SOLUBILITY in series [2] stood at 0.001 mgml^−1. For the same compound, the “potency and effectiveness compared with tamoxifen” value in series [3] is “more potent and more effective than tamoxifen”. The “effect on bone density” value in the series with uterus (at dose giving maximum regression of the uterus) is “does not adversely affect”. Further, the “regression of the uterus” value with uterus was “maximum regression”.
